The values below are quoted from earlier work in patent publication US10576041B2, “Extended relief dosage form” (The Procter & Gamble Company, priority 2016, dated 2020).

Each structure is given as a SMILES string. Structures can show the parent of a compound that is named as a salt.

For this data set the following is noted: immediate release; in the human body.

Take `CN[C@@H](C)[C@@H](O)c1ccccc1` [pseudoephedrine hydrochloride]: the half-life (usually how long it takes for the measured level to halve) is 4.3 to 8 h.
For `COc1ccc2c(c1)[C@]13CCCC[C@@H]1[C@H](C2)N(C)CC3` [dextromethorphan hydrobromide], the half-life was 3 to 5 h.
